Results reported in ChEMBL document CHEMBL1201862, “PubChem BioAssay data set” (2004).
Active and inactive are the calls of the source.

What was measured:
[1] = target: Neurotensin receptor type 1 (Homo sapiens, UniProt P30989); format: functional;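 further: Image-based confirmatory dose-response assay measuring agonist activity at NTR1; NTR1-expressing U2OS osteosarcoma cells imaged for beta-arrestin GFP spot formation; agonist potency where compounds increase beta-arrestin recruitment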
[2] = target: Sphingosine 1-phosphate receptor 2 (Homo sapiens, UniProt O95136); test: Dose Response Cell Based Assay for Agonists of the S1P2 Receptor. [Related pubchem assays: 729, 736, 843 ]; format: functional
Sphingosine 1-phosphate receptor 2, sequence (O95136 whole entry): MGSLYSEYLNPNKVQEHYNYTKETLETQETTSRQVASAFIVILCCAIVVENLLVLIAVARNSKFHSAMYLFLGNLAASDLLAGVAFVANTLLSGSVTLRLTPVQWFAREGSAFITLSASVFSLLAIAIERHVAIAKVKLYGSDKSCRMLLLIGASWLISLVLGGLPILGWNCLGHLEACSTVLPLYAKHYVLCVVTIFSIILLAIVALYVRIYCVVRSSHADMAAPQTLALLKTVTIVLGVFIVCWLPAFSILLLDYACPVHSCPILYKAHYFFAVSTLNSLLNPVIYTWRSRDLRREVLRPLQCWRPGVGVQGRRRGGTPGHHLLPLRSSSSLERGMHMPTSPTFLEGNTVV

Protein Tat = target: T1, Protein Tat (Human immunodeficiency virus type 1 group M subtype B (isolate HXB2)(HIV-1), UniProt P04608); format: functional;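 further: tat binding to TAR RNA read out by fluorescence polarization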
T1 sequence (P04608 whole entry): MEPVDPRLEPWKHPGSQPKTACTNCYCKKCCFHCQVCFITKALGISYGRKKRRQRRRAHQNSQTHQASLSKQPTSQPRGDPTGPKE

Vero = test: cells; format: functional; conditions: Chlorocebus sabaeus
[3] = tested on: Streptococcus sp. 'group A'; test: Streptococcus pyogenes SK(-)GAS viability under kanamycin – luminescence, BacTiterGlo, confirmation, counter-screen for streptokinase expression inhibitor project, dose response (AID 1900); format: functional, organism-based
[4] = viability loss in Vero cells – cytotoxicity control for Vif-APOBEC3G degradation inhibitor project, dose response (AID 1117358); format: functional; conditions: Vero
[5] = viability of PTEN-deleted HCT116 cells – cell-based, HCT116 PTEN knockout, dose response (AID 1047); format: functional;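 further: HCT116 colon tumor cells with PTEN knocked out; cells exposed to compound for 60 hours before readout; potency for loss of cell viability measured by luminescence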
Streptokinase A = target: T2, Streptokinase A (Streptococcus pyogenes serotype M1, UniProt P10520); test: viability-normalized secreted streptokinase activity reduction – plasminogen activation absorbance, OD405, dose response (AID 1914); format: functional, Streptococcus pyogenes M1 GAS;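 further: secreted streptokinase activity via plasminogen activation per viability signal from cell pellet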
T2 sequence (P10520 whole entry): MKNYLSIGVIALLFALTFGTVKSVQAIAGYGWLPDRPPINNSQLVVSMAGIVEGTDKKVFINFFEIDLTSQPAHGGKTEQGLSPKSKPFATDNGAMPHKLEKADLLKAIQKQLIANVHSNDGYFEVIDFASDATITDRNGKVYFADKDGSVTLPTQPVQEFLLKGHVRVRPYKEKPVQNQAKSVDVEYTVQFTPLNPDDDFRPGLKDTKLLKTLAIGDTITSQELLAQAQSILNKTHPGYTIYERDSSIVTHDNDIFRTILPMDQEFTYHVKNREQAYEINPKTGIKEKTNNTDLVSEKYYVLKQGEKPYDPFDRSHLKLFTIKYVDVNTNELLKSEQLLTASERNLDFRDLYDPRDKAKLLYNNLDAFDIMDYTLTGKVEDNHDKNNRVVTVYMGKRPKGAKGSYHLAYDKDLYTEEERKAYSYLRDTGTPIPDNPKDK

[6] = target: T3, Sphingosine 1-phosphate receptor 4 (Homo sapiens, UniProt O95977); test: Fluorescence dose response cell-based high throughput screening assay for agonists of the Sphingosine 1-Phosphate Receptor 4 (S1P4). [Related pubchem assays: 1509 (Primary screen.), 1523 (Confirmation screen in triplicates.)]; format: functional
T3 sequence (O95977 whole entry): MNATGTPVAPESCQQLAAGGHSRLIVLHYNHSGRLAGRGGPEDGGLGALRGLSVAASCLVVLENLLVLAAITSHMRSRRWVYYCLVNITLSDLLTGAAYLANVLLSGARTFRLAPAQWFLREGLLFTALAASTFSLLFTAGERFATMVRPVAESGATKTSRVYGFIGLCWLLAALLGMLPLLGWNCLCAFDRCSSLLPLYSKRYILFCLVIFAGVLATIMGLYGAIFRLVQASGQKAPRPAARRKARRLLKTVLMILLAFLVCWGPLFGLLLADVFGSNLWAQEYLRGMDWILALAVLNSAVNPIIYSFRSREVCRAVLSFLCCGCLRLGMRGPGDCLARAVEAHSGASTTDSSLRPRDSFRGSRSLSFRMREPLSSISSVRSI

Streptococcus = test: GAS UMAA2166 growth inhibition – luminescence, BacTiterGlo, counter-screen for streptokinase expression inhibitor project, dose response (AID 1915); format: functional, organism-based;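 further: potency for reduction of bacterial viability or growth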
[7] = target: Sphingosine 1-phosphate receptor 1 (Homo sapiens, UniProt P21453); test: Fluorescence-based counterscreen assay for S1P4 agonists: Cell-based dose response high throughput screening assay to identify agonists of the Sphingosine 1-Phosphate Receptor 1 (S1P1). [Related pubchem assays (depositor defined):AID1509, AID1523, AID1801, AID463107, AID463118, AID463119, AID463122, AID463123, AID463129, AID463225, AID504400, AID504460]; format: functional
Sphingosine 1-phosphate receptor 1, sequence (P21453 whole entry): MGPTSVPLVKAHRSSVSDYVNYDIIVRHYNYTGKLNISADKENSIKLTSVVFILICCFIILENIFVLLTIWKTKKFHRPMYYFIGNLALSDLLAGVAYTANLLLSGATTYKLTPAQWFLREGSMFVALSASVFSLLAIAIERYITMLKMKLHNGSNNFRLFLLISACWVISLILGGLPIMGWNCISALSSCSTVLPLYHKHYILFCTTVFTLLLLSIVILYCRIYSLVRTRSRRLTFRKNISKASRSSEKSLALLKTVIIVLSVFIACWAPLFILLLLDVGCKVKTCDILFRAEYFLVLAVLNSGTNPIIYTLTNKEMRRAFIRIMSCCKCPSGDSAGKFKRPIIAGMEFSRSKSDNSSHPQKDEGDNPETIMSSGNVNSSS

[8] = viability of HCT116 lacking mutant beta-catenin – cell-based, human colon tumor, dose response (AID 1045); format: functional;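 further: HCT116 colon tumor cells with beta catenin knocked out; cells exposed to compound for 60 hours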
[9] = target: T4, Ubiquitin-conjugating enzyme E2 N (Homo sapiens, UniProt P61088); format: functional
T4 sequence (P61088 whole entry): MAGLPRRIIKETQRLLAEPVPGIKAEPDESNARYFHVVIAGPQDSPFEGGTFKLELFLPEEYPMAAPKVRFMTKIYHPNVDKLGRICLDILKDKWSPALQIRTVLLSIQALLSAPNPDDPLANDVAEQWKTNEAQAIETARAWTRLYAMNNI

Bcl-2-related protein A1 = target: T5, Bcl-2-related protein A1 (Mus musculus, UniProt Q07440); format: functional;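 further: confirmatory dose–response counterscreen on Bfl-1, used to check hits from a UBC13 polyubiquitin inhibitor campaign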
T5 sequence (Q07440 whole entry): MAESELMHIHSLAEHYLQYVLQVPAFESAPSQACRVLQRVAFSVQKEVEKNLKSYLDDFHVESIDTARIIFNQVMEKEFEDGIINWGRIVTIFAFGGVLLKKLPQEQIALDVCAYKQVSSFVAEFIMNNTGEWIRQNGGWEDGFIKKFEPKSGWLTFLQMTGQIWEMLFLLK

[10] = target: T4, Ubiquitin-conjugating enzyme E2 N; format: functional; remark: listed apart in the source

Neurotensin receptor type 1, sequence (P30989 whole entry): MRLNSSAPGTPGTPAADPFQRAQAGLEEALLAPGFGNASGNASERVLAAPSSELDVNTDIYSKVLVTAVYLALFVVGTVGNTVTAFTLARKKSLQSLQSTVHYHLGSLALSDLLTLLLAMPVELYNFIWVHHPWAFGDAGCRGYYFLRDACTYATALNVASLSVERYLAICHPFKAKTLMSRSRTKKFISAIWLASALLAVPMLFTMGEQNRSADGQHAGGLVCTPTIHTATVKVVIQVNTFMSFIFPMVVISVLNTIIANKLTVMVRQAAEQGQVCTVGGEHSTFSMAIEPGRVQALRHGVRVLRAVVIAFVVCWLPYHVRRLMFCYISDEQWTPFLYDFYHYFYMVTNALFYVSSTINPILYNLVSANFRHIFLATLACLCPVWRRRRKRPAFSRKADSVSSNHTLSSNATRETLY

| Structure (SMILES) | EC50 [1] | EC50 [2] | IC50 (Protein Tat) | CC50 (Vero) | EC50 [3] | CC50 [4] | EC50 [5] | EC50 (Streptokinase A) | EC50 [6] | EC50 (Streptococcus) | EC50 [7] | EC50 [8] | IC50 [9] | IC50 (Bcl-2-related protein A1) | IC50 [10] |
| --- | --- | --- | --- | --- | --- | --- | --- | --- | --- | --- | --- | --- | --- | --- | --- |
| NS(=O)(=O)c1ccc(N2N=C(c3ccc(Br)cc3)CC2c2ccc(F)cc2)cc1 (stereo not given) | 25 µM (inactive) | 0.877 µM (active) | > 100 µM (active) | 17.1 µM (active) | 2.62 µM (active) | > 40 µM (active) | 14.1 µM (active) | > 150 µM (not active) | 3.33 µM (active) | 5.44 µM (active) | 2.2 µM (active) | 15.4 µM (active) | – | – | – |
| CCCCN(CC)CCNC(=O)c1cc2c(=O)n(CC)c3ccccc3c2s1 | – | – | – | – | – | – | – | – | – | – | – | – | 5.26 µM (active) | > 20 µM (inactive) | 18.1 µM (active) |
